Test [1] concerns Human immunodeficiency virus 1. As to the kind of experiment: Antiviral activity against HIV1 in human C8166 cells. The format is functional, organism-based.
For test [2], the target named is Protease (Human immunodeficiency virus 1) (UniProt Q9YQ12). As to the kind of experiment: Inhibition of HIV1 protease expressed in Escherichia coli by immunoblotting. Background: A western blot detects proteins with antibodies after separation by electrophoresis.
In a further test the test system is CEM-SS. In words: Cytotoxicity against human CEM-SS cells. The format is cell-based.
In test [3] the target is Human immunodeficiency virus type 1 reverse transcriptase (Human immunodeficiency virus 1) (UniProt Q72547). In words: Inhibition of HIV1 reverse transcriptase.
Test [4] has as its system Human immunodeficiency virus 2. As to the kind of experiment: Inhibition of HIV2 reverse transcriptase.
Test [5] can be described thus: Cytotoxicity against human melanoma cells after 48 hrs by SRB assay. The format is functional. Particulars: Melanoma cell, read-out: LC50 (the source's name).
The subject of test [6] is Escherichia coli. As to the kind of experiment: DNA damaging activity against Escherichia coli BR513 containing lysogenic lambda-lacZ fusion phage at 1 mg/ml by biochemical prophage induction assay. The format is functional, organism-based.
Test [7] deals with Escherichia coli. In words: DNA damaging activity against Escherichia coli K12 at 1 mg/ml by SOS chromotest agar spot test. The format is functional, organism-based.
Test [8] deals with Human immunodeficiency virus 1. In words: Antiviral activity against HIV1 3B in human H9 cells. The format is functional, organism-based.
In test [9] the test system is Human immunodeficiency virus 1. In words: Antiviral activity against HIV1 RF in human MT2 cells. The format is functional, organism-based.
Test [10] relates to Human immunodeficiency virus 2. As to the kind of experiment: Antiviral activity against HIV2 NIH-DZ assessed as cytoprotection. The format is functional, organism-based.
For test [11], the system named is Human immunodeficiency virus 1. As to the kind of experiment: Antiviral activity against HIV1 in human CEM-SS cells after 6 days. The format is functional, organism-based.

Activity calls are given as the source filed them. No cut-off for these calls is given here.

Sequence of Protease (Human immunodeficiency virus 1) (Q9YQ12 as listed by the source): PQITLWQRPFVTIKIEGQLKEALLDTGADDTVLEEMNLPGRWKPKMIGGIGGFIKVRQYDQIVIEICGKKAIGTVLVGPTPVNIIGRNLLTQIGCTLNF

For the compound `CN1CCCCC1c1c(O)cc(O)c2c(=O)cc(-c3ccccc3)oc12` (stereo not given), the outcome (in test [1]; in test [2]; in test [3]; in [4]; with Escherichia coli [6]; in the test with Escherichia coli [7]) was inactive. Moreover, the outcome in test [8], in [9] and in test [10] was inactive. In the test on CEM-SS, the IC50 came to 0.66 µM. The CC50 in test [5] is 0.1 µM.

For `O=c1cc(-c2ccccc2)oc2c(C3CCCCN3)c(O)cc(O)c12` (stereo not given), in the test on CEM-SS, it took 142 µM to reach half-maximal inhibition (IC50). This compound showed an EC50 in test [11] (Human immunodeficiency virus 1, CEM-SS, 144 h) of 142 µM.

Consider `COc1cc(O)c(C2CCCCN2C)c2oc(-c3ccccc3)cc(=O)c12` (stereo not given) [BUCHENAVIANINE], for which the IC50 in the test on CEM-SS was determined as 5.7 µM. The Activity in [11] is below 50%.

Broadly, the IC50 is the point on the concentration scale where inhibition reaches its midpoint. Low values mean higher potency, high ones lower potency. What is called EC50 is the concentration at which the effect is half-maximal. Lower therefore signals an effect from little substance.
